Columns and labels:
[1] = tested on: MC3T3-E1 osteoblasts; test: Stimulation of alkaline phosphatase (ALP) activity as a marker of bone forming activity; format: cell-based; details: 0.5 μM and 1.5 μM, 4 days; ASC+b-GP as positive control
Protocol: Cells were treated with 0.5 μM and 1.5 μM concentrations of 1-Methyleffusol for 4 days and the alkaline phosphatase (ALP) activity, as a marker of bone forming activity, was measured. Ascorbate and beta-glycerophosphate treatment (ASC+b-GP) was performed as positive control for ALP induction.

[2] = tested on: MC3T3-E1 osteoblasts; test: Promotion of osteoblast mineralization: calcium deposition by Alizarin Red staining; format: cell-based; details: 1.5 or 5 mM in osteoblast mineralization medium (OM), 14 days
Protocol: Cells were treated with 1-Methyleffusol (1.5 or 5 mM) in osteoblast mineralization medium (OM) for 14 days, and the calcium deposition in the cell layer was measured by Alizarin Red staining (images not shown).

[3] = tested on: bone forming activities; details: prior studies (U.S. application Ser. No. 17/713,384; Chinese Application No. 202210551690.4); cited from earlier work

- alkaline phosphatase (ALP) activity [1]: stimulate ALP activity
Compound: C=Cc1cc(O)c(C)c2c1-c1ccc(O)c(C)c1CC2 [1-Methyleffusol, 1,8-dimethyl-4-vinyl-9,10-dihydrophenanthrene-2,7-diol]
- mineralization (calcium deposition in the cell layer, Alizarin Red staining) [2]: promoted mineralization
- stimulation of bone forming activities [3]: exhibited the ability for stimulation of bone forming activities

From patent US20260159465A1, “METHODS OF MAKING AND USING 1-METHYLEFFUSOL” (Laboratory for Synthetic Chemistry and Chemical Biology …, priority 2024, published 2026)
